Test results as given in ChEMBL document CHEMBL4311995, “Discovery and development of extreme selective inhibitors of the ITD and D835Y mutant FLT3 kinases” (Eur J Med Chem, 2019).
Values after ≈ are worked out from the molar mass of the structure shown.

Experiments:
[1] = physchem; conditions: buffer, pH 2
[2] = in vitro; conditions: PAMPA, pH 7.4
[3] = physchem; conditions: buffer, pH 7.4
[4] = tested on: K562; assay: cells; type: functional, cell-based; conditions: Homo sapiens, K562, 72 h
[5] = cells; type: ADME, cell-based; conditions: Homo sapiens, HS5, 72 h
[6] = tested on: MV4-11; assay: cells; type: functional, cell-based; conditions: Homo sapiens, MV4-11, 72 h
[7] = tested on: U-937; assay: cells; type: functional, cell-based; conditions: Homo sapiens, U-937, 72 h

solubility kinetic at 24 h [1]	Papp at 5 h [2]	solubility kinetic at 24 h [3]	IC50 [4]	IC50 [5]	IC50 [6]	IC50 [7]	SMILES
119 µM (≈ 43.4 µg/mL)	5.86 ×10⁻⁶ cm/s	116 µM (≈ 42.3 µg/mL)	5.21 µM	4 µM			CSc1ccc(/C=C/c2nc(NCCN(C)C)c3ccccc3n2)cc1
119 µM (≈ 45 µg/mL)	3.38 ×10⁻⁶ cm/s	5 µM (≈ 1.89 µg/mL)	4.03 µM	3.28 µM	0.06 µM	4.1 µM	CC(C)c1ccc(/C=C/c2nc(NCCN(C)C)c3cc(F)ccc3n2)cc1
110 µM (≈ 43.4 µg/mL)	0.73 ×10⁻⁶ cm/s	12 µM (≈ 4.74 µg/mL)	2.87 µM	3.03 µM			CC(C)c1ccc(/C=C/c2nc(NCCN(C)C)c3cc(Cl)ccc3n2)cc1
96 µM (≈ 45.1 µg/mL)	5.35 ×10⁻⁶ cm/s	96 µM (≈ 45.1 µg/mL)	4.03 µM	2.07 µM		6.36 µM	CCN(CC)CCCNc1nc(/C=C/c2ccc(OC)cc2)nc2ccc(Br)cc12
115 µM (≈ 52.8 µg/mL)	0.56 ×10⁻⁶ cm/s	12 µM (≈ 5.51 µg/mL)	2.59 µM	4.09 µM	0.04 µM	4.95 µM	CCN(CC)CCNc1nc(/C=C/c2ccc(S(C)(=O)=O)cc2)nc2ccc(Cl)cc12
120 µM (≈ 40.4 µg/mL)	9.61 ×10⁻⁶ cm/s	10 µM (≈ 3.36 µg/mL)	5.81 µM	6.37 µM		10.9 µM	CN(C)CCNc1nc(/C=C/c2ccc(F)cc2)nc2ccccc12
111 µM (≈ 49.4 µg/mL)	0.61 ×10⁻⁶ cm/s	23 µM (≈ 10.2 µg/mL)	4.84 µM	4.03 µM		9.02 µM	CN(C)CCCNc1nc(/C=C/c2ccc(S(C)(=O)=O)cc2)nc2ccc(Cl)cc12
112 µM (≈ 48.3 µg/mL)	0.36 ×10⁻⁶ cm/s	8 µM (≈ 3.45 µg/mL)	6.94 µM	4.76 µM		12.3 µM	CN(C)CCNc1nc(/C=C/c2ccc(S(C)(=O)=O)cc2)nc2ccc(Cl)cc12
120 µM (≈ 48.8 µg/mL)	1.74 ×10⁻⁶ cm/s	36 µM (≈ 14.6 µg/mL)	2.12 µM	3.36 µM		4.11 µM	CCN(CC)CCNc1nc(/C=C/c2ccc(C(C)C)cc2)nc2ccc(F)cc12
			9.21 µM	11.4 µM	0.06 µM	19.8 µM	COc1cc2c(N3CCN(C(=O)Nc4ccc(OC(C)C)cc4)CC3)ncnc2cc1OCCCN1CCCCC1 [TANDUTINIB]
